Laboratory results from patent US20160008298A1, “XANTHOHUMOL-BASED COMPOUNDS AND COMPOSITIONS THEREOF, AND METHODS OF MAKING AND USING THE SAME” (Oregon State University, priority 2014, published 2016).
“And” between values parts separate entries of the source, which are not always exact repeats. Equal entries are not always repeated.

Experiments:
[1] = system: C2C12 muscle mouse cells; assay: Seahorse cell titration assay; format: cell-based; conditions: 2 μM, 20,000 cells/well
Procedure: As advised by Seahorce Bioscience, running a cell titration assay with FCCP at different concentrations prior to any Seahorse experiment is an important step to determine proper cell density for the cell line used. Then, oligomycin was tested at different concentrations at the proper cell density in order to determine the optimal working concentration. These optimization and titration assays offered starting conditions in determining the uncoupling effects on the mitochondria.
In the cell titration assay, cells were plated at 10,000, 20,000 and 40,000 cells/wells and FCCP was injected at 0.3 μM or 0.5 μM. […] DXN was also injected at 2 μM at 20,000 cells/well to have an idea of its potential effects on OCR.

[2] = system: C57BL6/J mice; assay: Intraperitoneal glucose tolerance test in high-fat fed mice; format: in vivo, mouse; conditions: for insulin sensitivity in the GTT compared to control (vehicle-diet) mice: 30 mg/kg body weight/day, weeks 4 and 11; for Mean Plasma Glucose Level 0 Min: 30 mg/kg/day in high fat diet, 6 h fast, before glucose injection; for Mean Plasma Glucose Level 15 min / Mean Plasma Glucose Level 30 min / Mean Plasma Glucose Level 60 min / Mean Plasma Glucose Level 120 min / peak glucose level (group average) / time at which peak glucose level was reached / peak glucose level / time at which peak glucose level occurred: 30 mg/kg/day; for Mean Plasma Glucose Level 15 min / Mean Plasma Glucose Level 30 min / Mean Plasma Glucose Level 60 min / Mean Plasma Glucose Level 120 min: after 2 g/kg glucose i.p.; for peak glucose level (group average) / time at which peak glucose level was reached: Week 4 glucose tolerance test; for peak glucose level / time at which peak glucose level occurred: Week 11 glucose tolerance test
Procedure: (§1) The total number of C57BL6/J mice was 48, with 12 mice belonging to each of 4 treatment groups. Duration of the feeding was 14 weeks. Mouse feed contained high fat content (60% of kCal), and was supplemented with XN, DXN, or TXN in the treatment groups. XN, DXN and TXN content within the mouse diet were designed to deliver a dose of 30 mg/kg/day body weight. Food intake was measured three times per week by weighing the food pellet before placement in the cage, and at the time of feed changing by weighing uneaten food. Mice were unrestricted in dietary intake, being allowed to eat as much food as desired. Mice were weighed once per week. Groups included low dose (30 mg/kg) XN, DXN, TXN and no supplement control. Mice were maintained in accordance with the Oregon State University Institutional Animal Care and Use Committee (IACUC) regulations. One mouse was maintained on a standard AIN-93M chow diet to be used as a healthy reference during glucose tolerance assays.
Glucose tolerance tests were conducted during week 4 and week 11 of the feeding trial. Five mice from each treatment group were used in each glucose tolerance assay. Mice were fasted for 6 hours prior to baseline blood glucose testing. Blood was collected from the mice by tail puncture, and glucose measurements were taken using a One Touch UltraMini (LifeScan, Inc.) glucometer. Mice were weighed and then given an intraperitoneal (IP) injection of glucose equal to 2 g/kg body weight.

[3] = system: C57BL6/J mice; assay: Plasma metabolites at sacrifice; format: in vivo, mouse; conditions: 14 weeks, 30 mg/kg/day; for Mean fasting plasma glucose at time of sacrifice: 6 hour fast, control 158.2±29.6; for Insulin level average: control 1.01±0.44; for Average plasma triglycerides: control 87.5±6.6; for Plasma cholesterol average: control 173.9±31.9
Procedure: as §1
Plasma was collected at sacrifice (14 weeks) to analyze for plasma glucose, triglycerides, cholesterol and insulin. Plasma glucose was assayed using the Wako Autokit Glucose kit (Wako Pure Chemical Industries, Ltd.). […] Samples were allowed to incubate for 5 minutes, and then the absorbance of each well was measured at a wavelength of 505 nm using a SpectraMax 190 spectrophotometer. Glucose was calculated using a 6-point calibration curve containing concentrations of 0, 25, 50, 100, 200 and 400 mg/dL.
Plasma triglycerides were measured using the Infinity™ Triglycerides Reagent kit (Thermo Fisher Scientific, Inc.). […] Absorbance at 500 nm was then measured on a SpectraMax 190 spectrophotometer. Triglyceride levels were calculated from a 6-point calibration curve.
Plasma cholesterol was measured using the Infinity™ Cholesterol Liquid Stable Reagent assay kit (Thermo Fisher Scientific, Inc.). Five μL of plasma from each sample was combined with 195 μL of Infinity™ Cholesterol Liquid Stable Reagent (50 mM phosphate buffer (pH 6.7) containing 200 U/L cholesterol oxidase, 500 U/L cholesterol esterase, 300 U/L peroxidase (horseradish), 0.25 mM 4-aminoantipyrine, 10 mM hydroxybenzoic acid) and incubated for 5 minutes at room temperature. Cholesterol absorbance was then measured using a SpectraMax 190 spectrophotometer at 500 nm, and concentrations were calculated using a 6-point calibration curve.
Plasma insulin levels were assayed using the ALPCO 80-INSMS-E01 mouse insulin enzyme-linked immunosorbent assay (ELISA) kit (ALPCO diagnostics, Salem, N.H.). Ten μL of plasma from each sample was loaded into a 96-well plate (provided in kit) and combined with 75 μL of provided conjugate buffer. The plate was placed on a shaker and incubated for 2 hours at room temperature while shaking at 800 rpm. The buffer was then discarded and the wells were washed 5 times with 100 μL of provided wash buffer. […] After incubation, 100 μL of stop solution was added to each well, and the plate was analyzed on a SpectraMax 190 spectrophotometer at 450 nm. Sample insulin concentrations were calculated using a 6-point calibration curve.

[4] = Dissolution in Seahorse running medium; format: physicochemical; conditions: 0.1% of FBS, 37° C.
[5] = Low and high XN diet feeding for 12 weeks, body weight and food intake; format: in vivo, mouse; conditions: high-fat fed C57BL/6J mice; for body weight gain compared to vehicle: oral, 12 weeks
Procedure: FIG. 27 is a graph showing weekly body weights of C57BL/6J mice fed control, low XN (30 mgkg body weight/day) and high XN (60 mg/kg body weight/day) diets for 12 weeks.
FIG. 28 is a graph showing no difference in food intake between treated and untreated mice for the studies from FIG. 27.

[6] = system: rats; assay: XN administered to rats at human equivalent doses; format: in vivo, rat
Procedure: In particular disclosed embodiments, the human equivalent dose of 180 mg XN/day reduced body weight gain by 14% and reduced fasting plasma glucose by 25% when administered to rats. In some embodiments, the human equivalent dose of 60 or 180 mg XN/day reduced the formation of products of dysfunctional fatty acid oxidation by up to 55% when administered to rats. Solely by way of example, the range 0.1-500 mg described above in Table 2 for XN covers the effective human equivalent doses of 60 mg/day to 180 mg/day of XN.

[7] = system: mice; assay: Mouse LD50; format: in vivo
[8] = system: mice; conditions: mouse; cited from earlier work
[9] = human equivalent dose of 180 mg XN/day

Row | Structure (SMILES) | insulin sensitivity in the GTT compared to control (vehicle-diet) mice [2] | Mean Plasma Glucose Level 0 Min ([2]; Week 4) | Mean Plasma Glucose Level 15 min ([2]; Week 4) | Mean Plasma Glucose Level 30 min ([2]; Week 4) | Mean Plasma Glucose Level 60 min ([2]; Week 4) | Mean Plasma Glucose Level 120 min ([2]; Week 4) | peak glucose level (group average) [2] | time at which peak glucose level was reached [2] [min] | Mean Plasma Glucose Level 0 Min ([2]; Week 11) | Mean Plasma Glucose Level 15 min ([2]; Week 11) | Mean Plasma Glucose Level 30 min ([2]; Week 11) | Mean Plasma Glucose Level 60 min ([2]; Week 11) | Mean Plasma Glucose Level 120 min ([2]; Week 11) | peak glucose level [2] [mg/dL] | time at which peak glucose level occurred [2] [min] | Mean fasting plasma glucose at time of sacrifice [3] [mg/dL] | Insulin level average [3] [ng/mL] | Average plasma triglycerides [3] [mg/dL] | Plasma cholesterol average [3] [mg/dL] | also measured
1 | COc1cc(O)c(CC=C(C)C)c(O)c1C(=O)CCc1ccc(O)cc1 [DXN, α,β-dihydroxanthohumol] | improved insulin sensitivity | 297.6 (±6.6) mg/dL | 396.4 (±55.9) mg/dL | 423.0 (±76.3) mg/dL | 342.8 (±70.4) mg/dL | 176.2 (±40.0) mg/dL | 423.0 mg/dL and 407.2 mg/dL | 30 | 249.8 (±22.1) mg/dL | 474.4 (±46.0) mg/dL | 508.0 (±41.2) mg/dL | 494.8 (±38.9) mg/dL | 298.8 mg/dL and 298.8 (±45.5) mg/dL | 508.0 | 30 | 150.5 ± 45.0 | 1.04 ± 0.77 | 84.5 ± 4.9 | 167.2 ± 33.3 | increase of OCR [1]: 204 % of the baseline; concentration dissolved in running medium [4]: up to 25 μM
2 | COc1cc(O)c(CCC(C)C)c(O)c1C(=O)CCc1ccc(O)cc1 [TXN, tetrahydroxanthohumol] | improved insulin sensitivity | 193.6 (±17.9) mg/dL | 407.2 (±38.1) mg/dL | 394.6 (±50.1) mg/dL | 235.8 (±21.9) mg/dL | 149.0 (±15.3) mg/dL | 407.2 mg/dL and 423.0 mg/dL | 15 | 245.0 (±17.8) mg/dL | 408.0 (±29.8) mg/dL | 513.6 (±37.6) mg/dL | 450.8 (±5.0) mg/dL | 266.8 mg/dL and 266.8 (±32.1) mg/dL | 513.6 | 30 | 116.1 ± 24.1 | 0.500 ± 0.24 | 76.4 ± 7.8 | 160.7 ± 30.7 | 
3 | COc1cc(O)c(CC=C(C)C)c(O)c1C(=O)/C=C/c1ccc(O)cc1 [XN, xanthohumol] | improved insulin sensitivity | 283.4 (±4.6) mg/dL | 508.8 (±28.3) mg/dL | 456.0 (±41.5) mg/dL | 389.6 (±29.8) mg/dL | 167.0 (±3.8) mg/dL | 508.8 mg/dL | 15 | 193.2 (±21.9) mg/dL | 465.0 (±30.0) mg/dL | 452.0 (±41.6) mg/dL | 463.8 (±52.2) mg/dL | 373.4 mg/dL and 373.4 (±58.1) mg/dL | 465.0 | 15 | 169.1 ± 28.7 | 1.19 ± 0.68 | 80.7 ± 4.2 | 196.2 ± 28.3 | food intake ([5]; 30 and 60 mg/kg): not altered; body weight gain compared to vehicle ([5]; 30 mg/kg (low dose)): gain less weight; body weight gain compared to vehicle ([5]; 60 mg/kg (high dose)): gain less weight; reduction of body weight gain [6, 9]: 14%; reduction of fasting plasma glucose [6, 9]: 25%; reduction of the formation of products of dysfunctional fatty acid oxidation ([6]; human equivalent dose of 60 or 180 mg XN/day): up to 55%; LD50 dose relative to the effective dose level [7]: more than 50 times; LD50 [8]: > 2000 mg/kg
